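Test compounds were applied to cells in 96-well plates for 48 hours at 5 doses. The concentration for 50% growth inhibition is given as GI50.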 Active and inactive are the calls of the source. Cut-off read from the data, not from the text of the source: active = GI50 up to about 1.1 µM and inactive = higher. Where a SMILES comes first, the peptide text is derived from it. Bridges are numbered along the chain shown (N, C = ends). [ ]: non-standard residue; d: D form. The star is where a group is joined. ξ: configuration not given here. ξNMePhe(4-NMe2) = CNC(Cc1ccc(N(C)C)cc1)C(=O)O; Picolinoyl(3-OH) = O=C(c1ncccc1O)*; ξPip(4-oxo) = O=C1CCNC(C(=O)O)C1; Phg = N[CH](C(=O)O)c1ccccc1; Abu = CC[CH](N)C(=O)O
Columns and labels:
Experiment in all cases: inhibition of tumour cell growth, NCI panel, 48 h
CAKI-1 = tested on: CAKI-1
SW-620 = tested on: SW-620
UO-31 = tested on: UO-31
CCRF-CEM = tested on: CCRF-CEM
MOLT-4 = tested on: MOLT-4
UACC-62 = tested on: UACC-62
786-0 = tested on: 786-0
KM12 = tested on: KM12
A549 = tested on: A549
SK-MEL-5 = tested on: SK-MEL-5
LOX IMVI = tested on: LOX IMVI
NCI-H522 = tested on: NCI-H522
LXFL 529 = tested on: LXFL 529
IGROV-1 = tested on: IGROV-1
RPMI-8226 = tested on: RPMI-8226
K562 = tested on: K562
OVCAR-3 = tested on: OVCAR-3
MDA-N = tested on: MDA-N
MDA-MB-435 = tested on: MDA-MB-435
SF-268 = tested on: SF-268

Measured: GI50

C=C(Br)C(C)(Cl)CCC(Br)C(C)(C)Br (centres undefined)
inactive: CAKI-1 > 100 µM | SW-620 79.8 µM | UO-31 84.3 µM | CCRF-CEM 22.5 µM | MOLT-4 31 µM | UACC-62 47.6 µM | 786-0 > 100 µM | KM12 99.1 µM | A549 40.9 µM | SK-MEL-5 65.3 µM | LOX IMVI 16.6 µM | NCI-H522 43.8 µM | LXFL 529 83 µM | IGROV-1 > 100 µM | RPMI-8226 25.9 µM | K562 27.4 µM

Cc1cn(C2CCN(CC3COC(C)(C)O3)O2)c(=O)[nH]c1=O (centres undefined)
inactive: CAKI-1 > 100 µM | SW-620 > 100 µM | UO-31 > 100 µM | CCRF-CEM > 100 µM | OVCAR-3 > 100 µM | MOLT-4 > 100 µM | UACC-62 > 100 µM | 786-0 > 100 µM | KM12 > 100 µM | MDA-N > 100 µM | A549 > 100 µM | MDA-MB-435 > 100 µM | SK-MEL-5 > 100 µM | LOX IMVI > 100 µM | NCI-H522 > 100 µM | SF-268 > 100 µM | IGROV-1 > 100 µM | RPMI-8226 > 100 µM | K562 > 100 µM

N#C/C(=C\c1ccc(O)c(O)c1)c1c(C#N)c(N)nn1-c1ccccc1
inactive: CAKI-1 1.59 µM | SW-620 12.8 µM | UO-31 6.47 µM | CCRF-CEM 4.11 µM | OVCAR-3 2.04 µM | UACC-62 3.81 µM | 786-0 7.67 µM | KM12 15.6 µM | A549 10.1 µM | SK-MEL-5 6.58 µM | LOX IMVI 5.05 µM | NCI-H522 3.32 µM | SF-268 7.38 µM | LXFL 529 8.65 µM | IGROV-1 4.17 µM | K562 3.94 µM

CC12O[C@H](c3ccccc3)[C@H](c3ccccc3)N1C(=O)C1(C(=O)OCc3ccccc3)CC12 (some centres undefined)
inactive: CAKI-1 > 100 µM | SW-620 > 100 µM | UO-31 41.2 µM | CCRF-CEM 28.6 µM | OVCAR-3 > 100 µM | MOLT-4 18.2 µM | UACC-62 > 100 µM | 786-0 > 100 µM | KM12 91 µM | A549 22.3 µM | SK-MEL-5 88.7 µM | LOX IMVI > 100 µM | NCI-H522 39.1 µM | SF-268 > 100 µM | LXFL 529 26.6 µM | IGROV-1 > 100 µM | K562 37.3 µM

Cc1ccc(S(=O)(=O)OCC23CCC(C2)C2CC23)cc1 (centres undefined)
inactive: CAKI-1 > 100 µM | SW-620 > 100 µM | UO-31 > 100 µM | CCRF-CEM > 100 µM | OVCAR-3 > 100 µM | MOLT-4 > 100 µM | UACC-62 > 100 µM | 786-0 > 100 µM | A549 > 100 µM | SK-MEL-5 > 100 µM | LOX IMVI > 100 µM | SF-268 > 100 µM | LXFL 529 > 100 µM | IGROV-1 > 100 µM | RPMI-8226 90.4 µM | K562 > 100 µM

CCOC(=O)c1ccc(Nc2nc3cc(C(F)(F)F)ccc3nc2C(=O)OCC)cc1
inactive: CAKI-1 23.5 µM | SW-620 > 100 µM | UO-31 > 100 µM | CCRF-CEM > 100 µM | OVCAR-3 58.6 µM | MOLT-4 > 100 µM | UACC-62 66.5 µM | 786-0 25.4 µM | KM12 > 100 µM | MDA-N > 100 µM | A549 39.6 µM | MDA-MB-435 > 100 µM | SK-MEL-5 28.3 µM | LOX IMVI 42.8 µM | NCI-H522 > 100 µM | SF-268 97.1 µM | IGROV-1 > 100 µM | RPMI-8226 > 100 µM | K562 31 µM

CC(C)COC1Sc2ccccc2S1
inactive: CAKI-1 16.3 µM | SW-620 29.7 µM | UO-31 15.5 µM | CCRF-CEM 27.7 µM | OVCAR-3 19.6 µM | MOLT-4 5.05 µM | UACC-62 4.91 µM | 786-0 22.3 µM | A549 20.5 µM | LOX IMVI 12.7 µM | SF-268 23.1 µM | LXFL 529 20.7 µM | IGROV-1 5.35 µM | RPMI-8226 5.45 µM

CC(=O)O[C@H]1C[C@]2(C)C(CCC3O[C@@]32C)[C@@]2(CC(c3ccoc3)OC2O)[C@@H]1C (some centres undefined)
inactive: CAKI-1 > 100 µM | SW-620 > 100 µM | UO-31 59.3 µM | CCRF-CEM 30.7 µM | OVCAR-3 60.7 µM | MOLT-4 29.6 µM | UACC-62 37.6 µM | 786-0 > 100 µM | KM12 78.3 µM | MDA-N > 100 µM | A549 > 100 µM | MDA-MB-435 86.7 µM | SK-MEL-5 50 µM | LOX IMVI 78.3 µM | NCI-H522 44.3 µM | SF-268 > 100 µM | IGROV-1 > 100 µM | RPMI-8226 28.9 µM | K562 35.8 µM

Nc1ncnc2c1ncn2[C@]1(CO)C=C(CO)C(O)C1O (some centres undefined)
inactive: CAKI-1 > 100 µM | SW-620 > 100 µM | MOLT-4 > 100 µM | 786-0 > 100 µM | KM12 > 100 µM | A549 > 100 µM | SK-MEL-5 > 100 µM | LOX IMVI > 100 µM | NCI-H522 > 100 µM | SF-268 > 100 µM | LXFL 529 > 100 µM | RPMI-8226 > 100 µM

CC1=C/C(O)CC(=O)Cc2nc(co2)C(=O)N2CCC=C2C(=O)OC(C(C)C)C(C)/C=C/C(=O)NC\C=C\1.CCC1NC(=O)C(NC(=O)c2ncccc2O)C(C)OC(=O)C(c2ccccc2)NC(=O)C2CC(=O)CCN2C(=O)C(Cc2ccc(N(C)C)cc2)N(C)C(=O)C2CCCN2C1=O (centres undefined) ({Picolinoyl(3-OH)}-T[Abu]P[ξNMePhe(4-NMe2)][ξPip(4-oxo)][Phg]; ester 1-C; configuration not given here)
inactive: CAKI-1 28.2 µM | SW-620 7.5 µM | UO-31 20.8 µM | CCRF-CEM 1.9 µM | OVCAR-3 8.04 µM | MOLT-4 3.64 µM | UACC-62 13 µM | 786-0 15.5 µM | KM12 10.4 µM | MDA-N 8.07 µM | A549 16.7 µM | MDA-MB-435 12 µM | SK-MEL-5 4.91 µM | LOX IMVI 3.87 µM | NCI-H522 9.1 µM | SF-268 24.4 µM | IGROV-1 11.4 µM | RPMI-8226 4.68 µM | K562 4.72 µM

Cc1cc(O)cc2oc(=O)c3c(O)cc(O)cc3c12 [ALTERNARIOL]
inactive: CAKI-1 21 µM | SW-620 16.2 µM | UO-31 34.6 µM | CCRF-CEM 23.4 µM | OVCAR-3 23 µM | MOLT-4 7.59 µM | UACC-62 24 µM | 786-0 28.6 µM | KM12 26.8 µM | A549 16.1 µM | SK-MEL-5 18.5 µM | LOX IMVI 16.1 µM | NCI-H522 13.4 µM | SF-268 27.4 µM | LXFL 529 59.6 µM | IGROV-1 19.7 µM | K562 36.6 µM
